According to patent US9597332B2, “Sulfide alkyl compounds for HBV treatment” (NOVIRA THERAPEUTICS, INC., priority 2014, dated 2017):

System: HBV replication in HepG2-2.2.15 cells
Assay: Inhibition of HBV replication dot-blot assay
Type: cell-based
Conditions: Hepatitis B virus, 144 h, 6 days, reduction in HBV DNA levels
Experimental: Compounds active in the HBV assembly assay are tested for their activity and toxicity in cellular assay. In the first anti-viral assay, the ability of compounds to inhibit HBV replication in an HBV-producing hepatoma cell line using the dot-blot method is evaluated.
(§1) Briefly, confluent monolayers of HepG2-2.2.15 cells are incubated with complete medium containing various concentrations of a test compound. Three days later, the culture medium is replaced with fresh medium containing the appropriately diluted test compound. Six days following the initial administration of the test compound, the cell culture supernatant is collected, and cell lysis is performed. The samples are applied onto Nylos membranes and DNA is immobilized to the membrane by UV cross-linking. After pre-hybridization, the HBV probe is added and the hybridization is performed overnight. The membranes are exposed to the KODAK films; antiviral activity is calculated from the reduction in HBV DNA levels (EC50). The EC50 for antiviral activity is calculated from the dose response curves of active compounds. Assay performance over time is monitored by the use of the standard positive control compounds ETV, BAY 41-4109, and HAP-1.
Selected compounds are tested for their activity and toxicity in cellular assay. In the first anti-viral assay, the ability of compounds to inhibit HBV replication in an HBV-producing hepatoma cell line using the dot-blot method is evaluated.
as §1, with “Confluent monolayers” for “Briefly, confluent monolayers”, “lysis was” for “lysis is”

| SMILES | EC50 [µM] |
| --- | --- |
| O=C(Nc1cc(F)c(F)c(F)c1)c1ccc(F)c(S[C@H]2CCCC[C@@H](O)C2)c1 (racemic) [Example 14A, (±)-4-Fluoro-3-(((1S,3R)-3-hydroxycycloheptyl)thio)-N-(3,4,5-trifluorophenyl)benzamide] | < 10 |
| O=C(Nc1cc(F)c(F)c(F)c1)c1ccc(F)c(S[C@H]2CCCC[C@H](O)C2)c1 (racemic) [Example 14B, (±)-4-Fluoro-3-(((1R,3R)-3-hydroxycycloheptyl)thio)-N-(3,4,5-trifluorophenyl)benzamide] | < 10 |
| O=C(Nc1ccc(F)c(Cl)c1)c1ccc(F)c(SC2CCC[C@H](O)C2)c1 (mixture of isomers) [Example 21, (±)-N-(3-Chloro-4-fluorophenyl)-4-fluoro-3-(((1R,3R)-3-hydroxycyclohexyl)thio)benzamide] | < 10 |
| O=C(Nc1ccc(F)c(Cl)c1)c1ccc(F)c(S[C@H]2CC[C@H](O)C2)c1 (racemic) [Example 25, (±)-N-(3-Chloro-4-fluorophenyl)-4-fluoro-3-(((1S,3S)-3-hydroxycyclopentyl)thio)benzamide] | < 10 |
